Source: patent EP2965760A1, “Combination of antiretroviral agents for use in the prevention or treatment of chronic inflammatory diseases” (Université de Montpellier, priority 2014, dated 2016)
“Also recorded” adds a separate entry of the source.

Key:
[1] = system: SCC12B2 cell line; test: Organotypic 3D reconstructed skin culture, cell differentiation (marker staining); format: cell-based, human; settings: SCC12B2-derived 3D reconstructed skin; for effect on cell differentiation (staining for psoriasine and cytokeratin 10): 100 µM for 21 days, immunofluorescence; for effect on cell differentiation: result in words
[2] = system: keratinocytes; test: IL-6 secretion by keratinocytes upon RT induction, time course (protocol of figure 5); format: cell-based; settings: ARV after demethylating treatment; result in words
Procedure: (§1) • Figures 1A-C represent the expression of cytokeratin 10 on SCC12B2-derived 3D reconstructed skin detected by immunohistochemistry. • Figure 1A represents untreated SCC12B2-derived 3D reconstructed skin. • Figure 1B represents SCC12B2-derived 3D reconstructed skin treated by AZT (100 µM) for 21 days: • Figure 1C: represents SCC12B2-derived 3D reconstructed skin treated by efavirenz (100 µM) for 21 days. Arrow indicates cytokeratin 10 expression. • Figures 2A-D represent the expression of psoriasine on SCC12B2-derived 3D reconstructed skin detected by immunofluorescence. • Figure 2A represents untreated SCC12B2-derived 3D reconstructed skin. • Figure 2B represents SCC12B2-derived 3D reconstructed skin treated by AZT (100 µM) for 21 days: • Figure 2C represents SCC12B2-derived 3D reconstructed skin treated by Lamivudine (100 µM) for 21 days. • Figure 2D represents SCC12B2-derived 3D reconstructed skin treated by AZT (100 µM) and Lamivudine (100 µM) for 21 days. […]

[3] = system: keratinocytes; test: IL-6 production by keratinocytes, ARVs given concomitantly with stimulation of RT activity; format: cell-based; settings: ARV concomitant with treatment that stimulated RT activity; result in words
Procedure: as §1

[4] = system: keratinocytes; test: Cytokine production by keratinocytes after demethylating treatment (protocol of figure 5, Day 7); format: cell-based; settings: after demethylation treatment
Procedure: • Figures 1A-C represent the expression of cytokeratin 10 on SCC12B2-derived 3D reconstructed skin detected by immunohistochemistry. • Figure 1A represents untreated SCC12B2-derived 3D reconstructed skin. • Figure 1B represents SCC12B2-derived 3D reconstructed skin treated by AZT (100 µM) for 21 days: • Figure 1C: represents SCC12B2-derived 3D reconstructed skin treated by efavirenz (100 µM) for 21 days. Arrow indicates cytokeratin 10 expression. • Figures 2A-D represent the expression of psoriasine on SCC12B2-derived 3D reconstructed skin detected by immunofluorescence. • Figure 2A represents untreated SCC12B2-derived 3D reconstructed skin. • Figure 2B represents SCC12B2-derived 3D reconstructed skin treated by AZT (100 µM) for 21 days: • Figure 2C represents SCC12B2-derived 3D reconstructed skin treated by Lamivudine (100 µM) for 21 days. • Figure 2D represents SCC12B2-derived 3D reconstructed skin treated by AZT (100 µM) and Lamivudine (100 µM) for 21 days. White staining denoted psoriasine expression. • Figures 3A-D represent the expression of cytokeratin 10 on SCC12B2-derived 3D reconstructed skin detected by immunofluorescence. • Figure 3A. represents untreated SCC12B2-derived 3D reconstructed skin. • Figure 3B represents SCC12B2-derived 3D reconstructed skin treated by AZT (100 µM) for 21 days: • Figure 3C represents SCC12B2-derived 3D reconstructed skin treated by lamividune (100 µM) for 21 days; • Figure 3D represents SCC12B2-derived 3D reconstructed skin treated with a combination of AZT (100 µM) and lamivudine (100 µM). White staining denoted cytokeratin 10 expression. • Figure 4 represents a histogram showing the level of endogenous RT activity in 3D reconstructed skin from various cell lines: PC F2 (A), PC B2 (B) or PC KN (C). PC F2 were obtained from the SCC12F2 cell line; PC B2 from the SCC12B2 cell line and PC KN from primary cultured human keratinocytes. Treatment were either azidothymidine (AZT; 2.) or efavirenz (3.) compared to the control (untreated; 1.). • Figure 5 represents a fow chart of the different treatments that aim at mimicking the initiating events of the psoriatic lesions • Figure 6 represents a histogram showing the level of the indicated cytokine production by keratinocytes at Day 7 of the protocol described in figure 5. Data were normalized versus control condition (fold increase in arbitrary unit). 1: IL-17 A; 2: IFN-γ; 3: TNF-α, 4: IL-1 RA and 5: IP-10. White columns represent the expression level in control cells. Black columns represent the expression level in cells treated with deoxyuridine, Grey columns represent the expression level in cells treated with desoxyuridine and Eviplera®. Hatched columns represent the expression level in cells treated with desoxyuridine and rilpivirine. Columns with dots represent the expression level in cells treated with desoxyuridine and efavirenz. • Figure 7 represents a graph showing time course (D0: Day 0; D2: Day 2; D5: Day 5; D7: Day 7) of the level of IL-6 production (fold increase) by keratinocytes according to the protocol described in figure 5. The expression is normalized to control at the corresponding time point. Diamond shape = untreated cells; Filled square = demethylating treated cells; Open square = treated with AZT; Filled circle = treated with lamivudine; Open circle = treated with Eviplera®. • Figure 8 represents a graph showing effects of ARVs upon simultaneous stimulation of RT activities on the production of IL-6 by keratinocytes. Values are normalized versus control. Filled diamond shape = control; Filled square = treated with demethylating agent; Triangle = treated with demethylating agent + Eviplera®; open diamond shape = treated with demethylating agent + lamivudine; Open circle = treated with demethylating agent + AZT; Filled circle = treated with demethylating agent + AZT + Lamivudine. […]

[5] = system: endogenous RT activities; test: Endogenous reverse transcriptase activity in extracts of ARV-treated 3D reconstructed skin (colorimetric Mn2+ and Mg2+ RT kit); format: cell-based, human; settings: Mn2+ and Mg2+ dependent; reconstructed skin from SCC12F2, SCC12B2 and primary keratinocytes; result in words
Description: Endogenous RT activities are increased in the psoriatic lesion when compared to non lesional psoriatic skin or normal skin extracts. […] The origin and the nature of these proteins are unknown but considering that the disease is not transmissible horizontally they should be attributed to endogenous proteins. In fact several cellular proteins including telomerase, LINE ORF2 and RT from human endogenous retroviruses (HERV) harbour a reverse transcriptase activity. LINE ORF2 is a Mg^2+-dependent RT, like RTs of the HERVs belonging to the MMTV-like group. The MLV-like HERV group harbours a Mn^2+-dependent RT. Effects of ARV on these activities was assessed in 3D culture models: Various reconstructed skin were assessed for RT inhibition through RTI treatment. They were generated from SSC12F2 and SCC12B2 cell lines and from normal primary keratinocytes (KN).
Reverse transcriptase assay : Protein extracts were prepared by crushing the cryostat skin sections (100 µm) in liquid nitrogen, incubating in ice-cold lysis buffer (10 mM Tris-HCl pH 7.5, 1 mM MgCl2, 1 mM EDTA, 0.1 mM PMSF, 5 mM β-mercaptoethanol, 0.5 % CHAPS, 10 % glycerol, 1 % NP40) and then subjected to three freeze/thaw cycles (LN2/4°C). […] RT activities were quantified with colorimetric highly sensitive Mn^2+ and Mg^2+ RT kit (Cavidi, Uppsala, Sweden) according to the manufacturer's instructions. […]

Compound	effect on cell differentiation (staining for psoriasine and cytokeratin 10) [1]	effect on the synthesis of IL-6 [2]	effect on the synthesis of IL-6 [3]	IFN-α expression decreased [4]	IP10 expression decreased [4]	effect on cell differentiation [1]	endogenous RT activities [5]	also measured
Nc1ccn([C@H]2CS[C@@H](CO)O2)c(=O)n1 [lamivudine, 2',3'-dideoxy-3'-thiacytidine]	Neither AZT, nor lamivudine has effect	neither AZT nor lamivudine have effect	no effect					
Cc1cc(/C=C/C#N)cc(C)c1Nc1ccnc(Nc2ccc(C#N)cc2)n1 [Rilpivirine]				more than 50%	more than 50%			
Cc1cc(C#N)cc(C)c1Oc1nc(Nc2ccc(C#N)cc2)nc(N)c1Br [Etravirine]						no or minor effects		
O=C1Nc2ccc(Cl)cc2[C@@](C#CC2CC2)(C(F)(F)F)O1 [Efavirenz]				more than 50%	more than 50%	reverses the "tumoral" phenotype of SCC12B2 cell line	decreased endogenous RT activities of both type	effect on cell differentiation ([1]; listed as efavirenz): impact cell differentiation; IL17A expression [4]: undetectable; TNF-α production [4]: potent induction
C[C@H](Cn1cnc2c(N)ncnc21)OCP(=O)(O)O [Tenofovir]						impact cell differentiation		
Cc1cn([C@H]2C[C@H](N=[N+]=[N-])[C@@H](CO)O2)c(=O)[nH]c1=O [AZT, Zidovudine]	Neither AZT, nor lamivudine has effect	neither AZT nor lamivudine have effect	no effect			no effect; also recorded: no or minor effects	less effective	
